According to patent US20090143279A1 (priority 2007, published 2009):
Read-outs that look alike come from different tables or passages of the source. Where a SMILES comes first, the peptide text is derived from it.

Tests used:
cytochrome c = assay type: cell-based, mouse
[1] = tested on: cellular dehydrogenase activity
nuOXPHOS transcripts = assay type: cell-based, mouse
[2] = tested on: mitochondrial membrane potential; assay type: cell-based, mouse
mtOXPHOS transcripts = assay type: cell-based, mouse
OXPHOS gene expression = assay type: cell-based, mouse
reactive oxygen species = assay type: cell-based, mouse
[3] = composite Z-score vs mock-treated (DMSO) wells, Conc 20 μM
[4] = composite Z-score vs DMSO, Conc 20 μM
[5] = normalized composite Z-score vs mock-treated (DMSO) wells, Conc 20 μM
[6] = Conc 20 μM, normalized score vs mock-treated (DMSO) wells
[7] = Table 4, C2C12 myotubes, 48 h, composite Z-score
[8] = composite Z-score vs DMSO wells, Conc 20 μM
[9] = composite Z-score vs DMSO, Conc 8 μM

## C=C1C[C@]23C[C@@]1(O)CC[C@H]2[C@@]12C=C[C@H](O)[C@@](C)(C(=O)O1)[C@H]2[C@@H]3C(=O)O [gibberellic acid]
Cytochrome c
  cyt c: 0.714
Cytochrome c; [3]
  cyt c: 0.031
[1]
  MTT: −0.432
[1]; [3]
  MTT: 0.661
nuOXPHOS transcripts
  nucOX: 0.066
nuOXPHOS transcripts; [3]
  nucOX: 0.077
[2]
  ΔΨm: 2.622
[2]; [3]
  ΔΨm: −0.439
C2C12 myotubes
  Viability: −0.171
C2C12 myotubes; [3]
  Viability: −0.081
mtOXPHOS transcripts
  mitoOX: −0.090
mtOXPHOS transcripts; [3]
  mitoOX: −0.264
OXPHOS gene expression
  GE-HTS: 0.021
OXPHOS gene expression; [3]
  GE-HTS: −0.014
Reactive oxygen species
  ROS: 0.246
Reactive oxygen species; [3]
  ROS: 0.512

## COc1cc(O)c2c(=O)cc(-c3ccc(OC)c(-c4c(O)cc(O)c5c(=O)cc(-c6ccc(O)cc6)oc45)c3)oc2c1 [ginkgetin]
Cytochrome c; [4]
  cyt c: −3.027
[1]; [4]
  MTT: −3.855
nuOXPHOS transcripts; [4]
  nucOX: −2.585
[2]; [4]
  ΔΨm: −4.324
C2C12 myotubes; [4]
  Viability: −1.523
mtOXPHOS transcripts; [4]
  mitoOX: −1.101
OXPHOS gene expression; [4]
  GE-HTS: −2.228
Reactive oxygen species; [4]
  ROS: −1.347

## C[C@@H]1C(=O)O[C@H]2C[C@@]34[C@H]5C[C@@H](C(C)(C)C)[C@]36[C@@H](OC(=O)[C@@H]6O)O[C@@]4(C(=O)O5)[C@]21O [ginkgolide A]
Cytochrome c; [5]
  cyt c: 0.541
[1]; [5]
  MTT: −1.019
nuOXPHOS transcripts; [5]
  nucOX: −0.286
[2]; [5]
  ΔΨm: −0.271
C2C12 myotubes; [5]
  Viability: 0.380
mtOXPHOS transcripts; [5]
  mitoOX: −0.123
OXPHOS gene expression; [5]
  GE-HTS: −0.247
Reactive oxygen species; [5]
  ROS: 1.848

## CC(=O)O[C@H]1CC[C@@]2(C)[C@H](CC[C@@H]3[C@@H]2CC[C@]2(C)[C@@H](C4=CC(=O)OC4)[C@@H](OC(C)=O)C[C@]32O)C1 [gitoxigenin diacetate]
Cytochrome c; [4]
  cyt c: 0.684
[1]; [4]
  MTT: −1.077
nuOXPHOS transcripts; [4]
  nucOX: −0.649
[2]; [4]
  ΔΨm: −0.792
C2C12 myotubes; [4]
  Viability: 0.187
mtOXPHOS transcripts; [4]
  mitoOX: −0.322
OXPHOS gene expression; [4]
  GE-HTS: −0.594
Reactive oxygen species; [4]
  ROS: 0.508

## OC[C@@H](O)[C@@H](OC1O[C@H](CO)[C@@H](O)[C@H](O)[C@H]1O)[C@H](O)[C@@H](O)CO (stereo partly shown) [glucitol-4-gucopyanoside]
Cytochrome c; [6]
  cyt c (composite Z-score): 0.305
[1]; [6]
  MTT (composite Z-score): −0.795
nuOXPHOS transcripts; [6]
  nucOX (composite Z-score): −1.087
[2]; [6]
  ΔΨm (composite Z-score): −0.454
C2C12 myotubes; [6]
  Viability (composite Z-score): −0.508
mtOXPHOS transcripts; [6]
  mitoOX (composite Z-score): −1.006
OXPHOS gene expression; [6]
  GE-HTS (composite Z-score): −1.143
Reactive oxygen species; [6]
  ROS (composite Z-score): 0.351

## CC(C)C[C@H](NC(=O)CN)C(=O)N[C@@H](Cc1ccccc1)C(=O)O [glycylleucylphenylalanine] (H-Gly-Leu-Phe-OH)
Cytochrome c; [4]
  cyt c: −0.182
[1]; [4]
  MTT: −0.344
nuOXPHOS transcripts; [4]
  nucOX: 0.033
[2]; [4]
  ΔΨm: −0.774
C2C12 myotubes; [4]
  Viability: −0.254
mtOXPHOS transcripts; [4]
  mitoOX: −0.322
OXPHOS gene expression; [4]
  GE-HTS: −0.095
Reactive oxygen species; [4]
  ROS: 0.973

## CC1(C)[C@@H](O[C@H]2O[C@H](C(=O)O)[C@@H](O)[C@H](O)[C@H]2O[C@@H]2O[C@H](C(=O)O)[C@@H](O)[C@H](O)[C@H]2O)CC[C@]2(C)[C@H]3C(=O)C=C4[C@@H]5C[C@@](C)(C(=O)O)CC[C@]5(C)CC[C@@]4(C)[C@]3(C)CC[C@@H]12 [glycyrrhizic acid]
Cytochrome c; [4]
  cyt c: 0.339
[1]; [4]
  MTT: −0.746
nuOXPHOS transcripts; [4]
  nucOX: −0.227
[2]; [4]
  ΔΨm: −0.606
C2C12 myotubes; [4]
  Viability: 0.254
mtOXPHOS transcripts; [4]
  mitoOX: −0.753
OXPHOS gene expression; [4]
  GE-HTS: −0.424
Reactive oxygen species; [4]
  ROS: 0.578

## COc1cc(OC)c2c(c1Cl)O[C@@]1(C(=O)CC(=O)C[C@H]1C)C2=O [griseofulvic acid, reference compound]
Cytochrome c; [3]
  cyt c: 0.724
[1]; [7]
  MTT: −0.469
[1]; [3]
  MTT: −0.469
nuOXPHOS transcripts; [3]
  nucOX: −0.442
[2]; Table 4, C2C12 myotubes, 48 h, JC-1, composite Z-score
  ΔΨm: −0.666
[2]; [3]
  ΔΨm: −0.666
C2C12 myotubes; [7]
  Viability: 0.176
C2C12 myotubes; [3]
  Viability: 0.176
mtOXPHOS transcripts; [3]
  mitoOX: −0.209
OXPHOS gene expression; [3]
  GE-HTS: −0.370
Reactive oxygen species; [7]
  ROS: −0.323
Reactive oxygen species; [3]
  ROS: −0.323

## N=C(N)N/N=C/c1c(Cl)cccc1Cl [guanabenz]
Cytochrome c; [4]
  cyt c: 0.420
[1]; [4]
  MTT: −0.886
nuOXPHOS transcripts; [4]
  nucOX: −0.286
[2]; [4]
  ΔΨm: −1.073
C2C12 myotubes; [4]
  Viability: −0.404
mtOXPHOS transcripts; [4]
  mitoOX: −0.563
OXPHOS gene expression; [4]
  GE-HTS: −0.428
Reactive oxygen species; [4]
  ROS: 1.527

## N=C(N)N.N=C(N)N.O=C(O)O [guanidine carbonate]
Cytochrome c; [4]
  cyt c: −1.206
[1]; [4]
  MTT: −0.683
nuOXPHOS transcripts; [4]
  nucOX: −1.112
[2]; [4]
  ΔΨm: −0.252
C2C12 myotubes; [4]
  Viability: −0.835
mtOXPHOS transcripts; [4]
  mitoOX: −0.993
OXPHOS gene expression; [4]
  GE-HTS: −1.142
Reactive oxygen species; [4]
  ROS: 0.401

## Cc1cc(OC(=O)c2c(C)cc(OC(=O)c3c(C)cc(O)cc3O)cc2O)cc(O)c1C(=O)O [gyrophoric acid]
Cytochrome c; [5]
  cyt c: −0.557
[1]; [5]
  MTT: −0.977
nuOXPHOS transcripts; [5]
  nucOX: −0.546
[2]; [5]
  ΔΨm: −0.842
C2C12 myotubes; [5]
  Viability: −0.579
mtOXPHOS transcripts; [5]
  mitoOX: −0.289
OXPHOS gene expression; [5]
  GE-HTS: −0.471
Reactive oxygen species; [5]
  ROS: 0.897

## CCOC(=O)c1c(C)cc(O)c(C=O)c1O [haematommic acid, ethyl ester]
Cytochrome c; [3]
  cyt c: −0.104
[1]; [3]
  MTT: −0.761
nuOXPHOS transcripts; [3]
  nucOX: 0.387
[2]; [3]
  ΔΨm: −0.120
C2C12 myotubes; [3]
  Viability: −0.557
mtOXPHOS transcripts; [3]
  mitoOX: 0.537
OXPHOS gene expression; [3]
  GE-HTS: 0.450
Reactive oxygen species; [3]
  ROS: 0.478

## Cc1cc(O)c(C=O)c(O)c1C(=O)O [haematommic acid]
Cytochrome c; [4]
  cyt c: 0.631
[1]; [4]
  MTT: −0.740
nuOXPHOS transcripts; [4]
  nucOX: −0.078
[2]; [4]
  ΔΨm: 0.002
C2C12 myotubes; [4]
  Viability: −0.412
mtOXPHOS transcripts; [4]
  mitoOX: −1.067
OXPHOS gene expression; [4]
  GE-HTS: −0.410
Reactive oxygen species; [4]
  ROS: −1.077

## CC1=C(CCC(=O)O)c2cc3[nH]c(cc4nc(cc5[nH]c(cc1n2)c(C)c5C(C)O)C(C)=C4C(C)O)c(C)c3CCC(=O)O (stereo not shown) [haematoporphyrin]
Cytochrome c; [4]
  cyt c: 0.324
[1]; [4]
  MTT: −3.312
nuOXPHOS transcripts; [4]
  nucOX: 0.251
[2]; [4]
  ΔΨm: −3.662
C2C12 myotubes; [4]
  Viability: −1.933
mtOXPHOS transcripts; [4]
  mitoOX: 0.416
OXPHOS gene expression; [4]
  GE-HTS: 0.309
Reactive oxygen species; [4]
  ROS: 1.666

## O=C(O)c1ccc(S(=O)(=O)N(Cl)Cl)cc1 [halazone]
Cytochrome c; [8]
  cyt c: −0.942
[1]; [8]
  MTT: −0.445
nuOXPHOS transcripts; [8]
  nucOX: 0.593
[2]; [8]
  ΔΨm: −0.334
C2C12 myotubes; [8]
  Viability: −0.242
mtOXPHOS transcripts; [8]
  mitoOX: 0.385
OXPHOS gene expression; [8]
  GE-HTS: 0.565
Reactive oxygen species; [8]
  ROS: 0.779

## CC1(C)O[C@@H]2C[C@H]3[C@@H]4CCC5=CC(=O)CC[C@]5(C)[C@@]4(F)[C@@H](O)C[C@]3(C)[C@]2(C(=O)CCl)O1 [halcinonide]
Cytochrome c; [4]
  cyt c: −0.794
[1]; [4]
  MTT: −0.789
nuOXPHOS transcripts; [4]
  nucOX: 0.284
[2]; [4]
  ΔΨm: 0.570
C2C12 myotubes; [4]
  Viability: 0.106
mtOXPHOS transcripts; [4]
  mitoOX: 0.831
OXPHOS gene expression; [4]
  GE-HTS: 0.492
Reactive oxygen species; [4]
  ROS: 0.624

## CCCCN(CCCC)CCC(O)c1cc2c(Cl)cc(Cl)cc2c2cc(C(F)(F)F)ccc12 (stereo not shown) [halofantrine]
Cytochrome c; [9]
  cyt c: −0.236
[1]; [9]
  MTT: −0.174
nuOXPHOS transcripts; [9]
  nucOX: −0.239
[2]; [9]
  ΔΨm: −0.668
C2C12 myotubes; [9]
  Viability: 0.132
mtOXPHOS transcripts; [9]
  mitoOX: −0.969
OXPHOS gene expression; [9]
  GE-HTS: −0.508
Reactive oxygen species; [9]
  ROS: 0.012
